Assay results from patent US8354518B2, “HCV replicons containing NS5B from genotype 2B” (Merck Sharp & Dohme Corp., priority 2003, dated 2013).

Experiments:
Assay type in all cases: cell-based, Hepatitis C virus (HCV)
[1] = tested on: bk:2B bla chimeric replicon bearing change at residue 392; test: β-lactamase reporter replicon assay, bk:2B bla chimeric replicon with change at residue 392; conditions: at the EC95 for 2′C-methyladenosine; replicon not robust enough for IC50 determination
Protocol: (§1) Selection of persistently replication cells lines expressing β-lactamase, using bla:2b chimeric replicons each harboring a different mutation (N24S, M31I, I392L) defined in the Neo^r selection studies described above, was performed in the enhanced replication Huh7 derived cell line MR2. (Murray et al., J. of Virology, 77:2928-2935, 2003.) To generate RNA for transfection, plasmids were linearized by digestion of an XbaI site distal to the replicon sequences. RNA was generated using MEGAscript™ (Ambion, Austin, Tex.) and quantitated by UV absorbance.
(§2) On day 4 cells from one flask were collected, counted, and seeded into a 96 well Cytostar plate at a density of 7,500 cells/well in the presence of 1 μM clavulonic acid. […] Simultaneously, the other flasks were analyzed for β-lactamase activity to verify both that activity from a non-replicating control sub-genomic replicon was undetectable, and establish the day 4 replication activity of the test replicons. […] Cells with drug were incubated for two days, and analyzed as described in Example 4.
(§3) Medium was removed by aspiration and cells were stained for 2 hours with CCF4-AM (Invitrogen Corp., Carlsbad, Calif.) in DMEM supplemented with 25 mM HEPES, pH 8.0. Fluorescence due to β-lactamase activity was measured through excitation at 405 nm, followed by measurement of the emission at 460 nm using a CytoFluor 4000 fluorescence plate reader. […]

BK-2bM31I = test: β-lactamase reporter replicon assay, BK-2bM31I chimeric replicon; conditions: BK-2bM31I replicon in MR2 (Huh7 derived) cells, two days with drug, percent of DMSO control, 4 parameter fit
Protocol: as §1
(§4) MR2 was maintained in Dulbecco's modified Eagle's medium (DMEM) supplemented with 10% fetal bovine serum, nonessential amino acids, 2 mM GlutaMAX, and Penn/Strep (Invitrogen Corp., Carlsbad, Calif.). Cells were seeded the night prior to transfection at a density of 300,000 cells per well in a 6-well dish. A mixture of 5 μg RNA, 12 μl of DMRE-C (Invitrogen Corp., Carlsbad, Calif.), and 2 ml of Opti-Mem (Invitrogen Corp., Carlsbad, Calif.) media was prepared and allowed to sit for 10 minutes. During this time media was removed from the MR2 cells, cells were washed once with Opti-Mem, then the RNA:DMRE-C mixture was added dropwise, and incubated for ˜8 hours. Transfection media was removed by aspiration, and replaced with 2 ml DMEM.

[2] = tested on: bk:2B bla chimeric replicon bearing change at residue 24; test: β-lactamase reporter replicon assay, bk:2B bla chimeric replicon with change at residue 24; conditions: at the EC95 for 2′C-methyladenosine; replicon not robust enough for IC50 determination
Protocol: as §1, §2, §3

BK NS5a268S-2bN24S = test: β-lactamase reporter replicon assay, BK NS5a268S-2bN24S chimeric replicon; conditions: BK NS5a268S-2bN24S replicon
Protocol: as §1, with “absorbance. […]” for “absorbance.”
(§5) The next morning cells were expanded into two T75 flasks and grown for an additional three days. A duplicate well for each replicon construct was analyzed for β-lactamase activity to verify that the transfection efficiency was >90%.
as §2, with “4. […]” for “4.”

Con1-2bM31I = test: β-lactamase reporter replicon assay, Con1-2bM31I chimeric replicon; conditions: Con1-2bM31I replicon in MR2 (Huh7 derived) cells, two days with drug, percent of DMSO control, 4 parameter fit
Protocol: as §1, §4

BK-2b N24S/L392I = test: β-lactamase reporter replicon assay, BK-2b N24S/L392I chimeric replicon; conditions: BK-2b N24S/L392I replicon
Protocol: as §1, with “absorbance. […]” for “absorbance.”
as §5
as §2, with “4. […]” for “4.”

For C[C@@]1(O)[C@H](O)[C@@H](CO)O[C@H]1n1cnc2c(N)ncnc21 [2′C-methyladenosine], the “inhibition of limited replication” value [1] was “could be inhibited”, the EC50 (BK-2bM31I) was 667 nM and the “inhibition of limited replication” value [2] was “could be inhibited”. For the same compound, the EC50 (BK NS5a268S-2bN24S) was 982 nM, the EC50 (Con1-2bM31I) was 407 nM and the EC50 (BK-2b N24S/L392I) was 185 nM.
